Data on 34 compounds can be found in patent US8044069B2, “Compounds as calcium channel blockers” (Abbott Laboratories, priority 2008, dated 2011).

SMILES strings stand for the structures.

human Cav2.2, sequence (Q00975 whole entry): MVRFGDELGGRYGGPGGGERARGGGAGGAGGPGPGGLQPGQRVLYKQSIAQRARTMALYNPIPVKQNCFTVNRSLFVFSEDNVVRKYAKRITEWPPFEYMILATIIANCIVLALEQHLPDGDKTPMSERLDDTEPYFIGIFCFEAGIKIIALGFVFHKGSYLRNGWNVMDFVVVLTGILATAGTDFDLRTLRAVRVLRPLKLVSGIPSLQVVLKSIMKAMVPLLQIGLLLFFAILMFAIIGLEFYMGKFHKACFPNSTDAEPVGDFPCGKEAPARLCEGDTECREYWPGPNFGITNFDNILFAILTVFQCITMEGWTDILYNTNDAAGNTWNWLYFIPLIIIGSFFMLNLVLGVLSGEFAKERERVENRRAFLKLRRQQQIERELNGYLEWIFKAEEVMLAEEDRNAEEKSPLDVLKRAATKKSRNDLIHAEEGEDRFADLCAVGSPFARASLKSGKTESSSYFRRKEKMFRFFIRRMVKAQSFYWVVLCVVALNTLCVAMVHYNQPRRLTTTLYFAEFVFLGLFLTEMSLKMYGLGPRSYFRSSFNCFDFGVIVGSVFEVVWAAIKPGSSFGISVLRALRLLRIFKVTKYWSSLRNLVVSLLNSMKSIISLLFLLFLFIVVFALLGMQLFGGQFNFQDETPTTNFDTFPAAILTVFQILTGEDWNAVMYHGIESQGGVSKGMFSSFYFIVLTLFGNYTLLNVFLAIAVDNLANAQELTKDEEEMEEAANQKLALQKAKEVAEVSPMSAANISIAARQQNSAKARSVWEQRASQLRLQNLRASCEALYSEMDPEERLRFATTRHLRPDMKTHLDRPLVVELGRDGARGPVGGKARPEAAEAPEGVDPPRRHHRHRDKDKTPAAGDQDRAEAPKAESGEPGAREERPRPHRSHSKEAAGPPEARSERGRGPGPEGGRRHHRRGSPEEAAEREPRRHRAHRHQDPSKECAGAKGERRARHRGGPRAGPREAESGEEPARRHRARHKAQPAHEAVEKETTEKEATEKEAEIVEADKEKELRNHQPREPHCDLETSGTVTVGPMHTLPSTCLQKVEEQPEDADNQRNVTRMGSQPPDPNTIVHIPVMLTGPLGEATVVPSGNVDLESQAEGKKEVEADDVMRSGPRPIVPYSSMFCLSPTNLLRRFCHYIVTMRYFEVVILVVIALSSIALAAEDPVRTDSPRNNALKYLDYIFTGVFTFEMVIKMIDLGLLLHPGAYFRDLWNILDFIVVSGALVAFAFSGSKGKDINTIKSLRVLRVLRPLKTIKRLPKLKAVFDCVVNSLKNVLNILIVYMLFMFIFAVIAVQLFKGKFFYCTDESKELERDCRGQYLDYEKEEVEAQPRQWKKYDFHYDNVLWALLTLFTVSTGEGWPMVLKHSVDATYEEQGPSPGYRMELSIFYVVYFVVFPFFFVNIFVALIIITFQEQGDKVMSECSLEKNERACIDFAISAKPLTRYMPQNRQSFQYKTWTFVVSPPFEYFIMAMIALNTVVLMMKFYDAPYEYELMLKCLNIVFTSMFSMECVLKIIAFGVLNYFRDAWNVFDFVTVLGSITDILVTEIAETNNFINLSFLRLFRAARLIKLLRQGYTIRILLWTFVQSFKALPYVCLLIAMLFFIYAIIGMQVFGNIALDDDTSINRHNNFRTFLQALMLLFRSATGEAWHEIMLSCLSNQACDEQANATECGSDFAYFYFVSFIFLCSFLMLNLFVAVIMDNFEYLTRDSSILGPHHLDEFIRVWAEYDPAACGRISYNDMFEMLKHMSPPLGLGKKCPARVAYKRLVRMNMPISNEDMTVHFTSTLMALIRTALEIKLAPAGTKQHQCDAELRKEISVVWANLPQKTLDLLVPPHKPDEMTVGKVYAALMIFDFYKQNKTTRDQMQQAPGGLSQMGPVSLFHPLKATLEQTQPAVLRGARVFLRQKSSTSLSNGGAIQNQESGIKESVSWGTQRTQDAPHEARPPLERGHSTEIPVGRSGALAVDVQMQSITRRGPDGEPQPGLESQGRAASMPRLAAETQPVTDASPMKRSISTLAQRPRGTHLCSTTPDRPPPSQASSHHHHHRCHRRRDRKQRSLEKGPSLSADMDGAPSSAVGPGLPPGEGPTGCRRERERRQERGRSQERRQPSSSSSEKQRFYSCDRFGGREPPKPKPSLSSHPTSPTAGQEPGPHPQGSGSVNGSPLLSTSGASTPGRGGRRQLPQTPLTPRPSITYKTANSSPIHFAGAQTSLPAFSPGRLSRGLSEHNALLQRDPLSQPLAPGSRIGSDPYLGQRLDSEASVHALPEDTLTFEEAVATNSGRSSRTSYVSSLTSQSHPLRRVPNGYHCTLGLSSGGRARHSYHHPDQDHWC
human Cav2.2, sequence (P54289 25-951 partner limits assumed): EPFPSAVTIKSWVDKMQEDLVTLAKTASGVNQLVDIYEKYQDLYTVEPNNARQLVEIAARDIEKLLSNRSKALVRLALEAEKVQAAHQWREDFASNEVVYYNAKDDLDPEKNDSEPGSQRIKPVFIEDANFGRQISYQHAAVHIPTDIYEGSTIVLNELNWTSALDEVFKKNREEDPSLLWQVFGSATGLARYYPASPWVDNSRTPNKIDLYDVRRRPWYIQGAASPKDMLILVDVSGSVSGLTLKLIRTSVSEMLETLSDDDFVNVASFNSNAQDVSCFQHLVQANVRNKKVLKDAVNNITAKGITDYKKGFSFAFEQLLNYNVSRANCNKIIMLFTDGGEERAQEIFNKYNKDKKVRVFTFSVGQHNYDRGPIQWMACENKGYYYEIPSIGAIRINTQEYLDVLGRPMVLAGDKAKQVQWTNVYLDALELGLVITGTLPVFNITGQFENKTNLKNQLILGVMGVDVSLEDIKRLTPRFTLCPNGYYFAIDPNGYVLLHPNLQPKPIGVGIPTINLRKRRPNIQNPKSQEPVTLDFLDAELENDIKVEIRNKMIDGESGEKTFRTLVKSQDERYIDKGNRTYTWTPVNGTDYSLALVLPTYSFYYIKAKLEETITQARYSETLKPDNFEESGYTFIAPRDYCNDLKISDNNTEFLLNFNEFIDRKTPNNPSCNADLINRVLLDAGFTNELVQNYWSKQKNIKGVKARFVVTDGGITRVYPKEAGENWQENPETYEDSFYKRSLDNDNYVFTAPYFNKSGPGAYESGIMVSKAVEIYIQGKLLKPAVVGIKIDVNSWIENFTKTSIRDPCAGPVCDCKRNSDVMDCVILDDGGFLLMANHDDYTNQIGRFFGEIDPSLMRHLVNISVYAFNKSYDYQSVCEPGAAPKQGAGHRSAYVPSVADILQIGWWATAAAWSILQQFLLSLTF
human Cav2.2, sequence (P54289 952-1103 partner limits assumed): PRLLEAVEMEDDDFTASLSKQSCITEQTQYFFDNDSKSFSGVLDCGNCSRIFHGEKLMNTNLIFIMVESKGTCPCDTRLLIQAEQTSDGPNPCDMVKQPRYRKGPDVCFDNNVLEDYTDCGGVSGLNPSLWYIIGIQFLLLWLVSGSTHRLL
human Cav2.2, sequence (P54284 whole entry partner): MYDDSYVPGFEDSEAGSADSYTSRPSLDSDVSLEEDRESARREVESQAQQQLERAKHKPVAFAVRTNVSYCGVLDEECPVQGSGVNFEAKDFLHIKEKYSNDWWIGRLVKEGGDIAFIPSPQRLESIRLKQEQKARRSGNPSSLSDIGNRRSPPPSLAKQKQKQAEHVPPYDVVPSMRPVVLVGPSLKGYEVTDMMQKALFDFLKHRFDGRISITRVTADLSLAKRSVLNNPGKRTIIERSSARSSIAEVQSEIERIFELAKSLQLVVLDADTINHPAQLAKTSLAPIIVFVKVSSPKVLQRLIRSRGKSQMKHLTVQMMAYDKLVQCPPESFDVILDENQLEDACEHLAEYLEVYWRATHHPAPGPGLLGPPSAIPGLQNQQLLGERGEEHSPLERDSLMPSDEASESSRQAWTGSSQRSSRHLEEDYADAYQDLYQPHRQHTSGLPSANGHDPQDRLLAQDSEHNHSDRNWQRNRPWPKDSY

In the assay the target is human Cav2.2 (Homo sapiens, UniProt Q00975). In words: Assessment of calcium channel activity using FLIPR (Ca2+ influx in IMR32 cells). The following applies: IMR32 cells endogenously expressing human Cav2.2; 60 minute pre-incubation; 2 μM nifedipine; depolarized with 80 mM KCl, 5 mM CaCl2. Format: cell-based. Here is the method:
(i) In Vitro Methods—Assessment of Calcium Channel Activity Using FLIPR:
The IMR32 cells were maintained in MEM media containing 10% (v/v) FBS, 1% (v/v) antibiotic/antimitotic, 1% (v/v) sodium pyruvate and 1% (v/v) MEM NEAA. Following dissociation in 0.05% (v/v) trypsin/EDTA, cells were seeded into black 1×96-well plates (Corning Cellbind) at a density of 1-1.2×10^5 cells/well and incubated in the maintenance media above for 48 hours at 37° C. […] After dye loading and a subsequent 60 minute pre-incubation with compounds (full log dilutions from 10 μM to 0.1 nM) in the presence of 1.3 mM CaCl2 and 2 μM nifedipine to block endogenous L-type channels, the external Ca^2+ concentration was increased to 5 mM CaCl2 and the cells concomitantly depolarized with 80 mM KCl to assay channel activity. To determine the IC50 values, the percent inhibition of the compound at each concentration was determined relative to the activity in the absence of inhibitor, and data was fitted using non-linear regression sigmoidal dose response curve analysis with GraphPad Prism®.
Turning to `O=C(CN1CCC(c2ccccc2)(c2ccccc2)C1=O)N1CCC(NCc2cccc(C(F)(F)F)c2)CC1` [Example 42, 1-[2-oxo-2-(4-{[3-(trifluoromethyl)benzyl]amino}piperidin-1-yl)ethyl]-3,3-diphenylpyrrolidin-2-one], the IC50 was 1.13 µM.
For the compound `O=C(CN1CCCC(c2ccccc2)(c2ccccc2)C1=O)N1CCN(Cc2ccc(F)c(C(F)(F)F)c2)CC1` [Example 184, 1-(2-{4-[4-fluoro-3-(trifluoromethyl)benzyl]piperazin-1-yl}-2-oxoethyl)-3,3-diphenylpiperidin-2-one], the IC50 is 1.27 µM.
On to `O=C(CN1CCC(c2ccccc2)(c2ccccc2)C1=O)N1CCc2ccc(C(F)(F)F)cc2C1` [Example 55, 1-{2-oxo-2-[7-(trifluoromethyl)-3,4-dihydroisoquinolin-2(1H)-yl]ethyl}-3,3-diphenylpyrrolidin-2-one], for which the IC50 turned out to be 2.13 µM.
As to `O=C(CN1CCCC(c2ccccc2)(c2ccccc2)C1=O)N1CCCC(c2ccccc2)(c2ccccc2)C1` [Example 71, 1-[2-(3,3-diphenylpiperidin-1-yl)-2-oxoethyl]-3,3-diphenylpiperidin-2-one], the IC50 is 3.41 µM.
Turning to `O=C(CN1CCC(c2ccc(F)cc2)(c2ccc(F)cc2)C1=O)N1Cc2ccc(C(F)(F)F)cc2C1` [Example 228, 3,3-bis(4-fluorophenyl)-1-{2-oxo-2-[5-(trifluoromethyl)-1,3-dihydro-2H-isoindol-2-yl]ethyl}pyrrolidin-2-one], the concentration for half-maximal inhibition (IC50) was 1.53 µM.
As for `O=C(CN1CCC(c2ccccc2)(c2ccccc2)C1=O)N[C@H]1CC[C@H]2CN(Cc3cccc(C(F)(F)F)c3)C[C@H]21` (relative stereo) [Example 56, 2-(2-oxo-3,3-diphenylpyrrolidin-1-yl)-N-{(3aS*,4S*,6aR*)-2-[3-(trifluoromethyl)benzyl]octahydrocyclopenta[c]pyrrol-4-yl}acetamide], the figure is 1.1 µM; as for `CN(CCCN1CCCC(c2ccc(F)cc2)(c2ccc(F)cc2)C1=O)CCc1ccccc1` [Example 123, 3,3-bis(4-fluorophenyl)-1-{3-[methyl(2-phenylethyl)amino]propyl}piperidin-2-one], 1.45 µM.
Consider `O=C1N(S(=O)(=O)c2ccc(C(F)(F)F)cc2)CCC1(c1ccccc1)c1ccccc1` [Example 149, 3,3-diphenyl-1-{[4-(trifluoromethyl)phenyl]sulfonyl}pyrrolidin-2-one], for which the IC50 came to 8.13 µM.
Turning to `O=C(CN1CCC(c2ccccc2)(c2ccccc2)C1=O)NCCC(c1ccccc1)c1ccccc1` [Example 13, N-(3,3-diphenylpropyl)-2-(2-oxo-3,3-diphenylpyrrolidin-1-yl)acetamide], the IC50 is 0.99 µM.
For `COc1ccc2[nH]cc(C3=CCN(C(=O)CN4CCC(c5ccccc5)(c5ccccc5)C4=O)CC3)c2c1` [Example 35, 1-{2-[4-(5-methoxy-1H-indol-3-yl)-3,6-dihydropyridin-1(2H)-yl]-2-oxoethyl}-3,3-diphenylpyrrolidin-2-one], the IC50 was determined as 8.07 µM.
The result for `O=C(CN1CCC(c2ccccc2)(c2ccccc2)C1=O)Nc1ccc(C(F)(F)F)nc1` [Example 248, 2-(2-oxo-3,3-diphenylpyrrolidin-1-yl)-N-[6-(trifluoromethyl)pyridin-3-yl]acetamide] reads 8.84 µM; that for `O=C(CN1CCC(c2ccccc2)(c2ccccc2)C1=O)NC1CCN(C(c2ccccc2)c2ccccc2)CC1` [Example 48, N-(1-benzhydrylpiperidin-4-yl)-2-(2-oxo-3,3-diphenylpyrrolidin-1-yl)acetamide], 0.4 µM.
With `O=C(CN1CCC(c2ccccc2)(c2ccccc2)C1=O)N1CCC(C(O)(c2ccc(F)cc2)c2ccc(F)cc2)CC1` [Example 32, 1-(2-{4-[bis(4-fluorophenyl)(hydroxy)methyl]piperidin-1-yl}-2-oxoethyl)-3,3-diphenylpyrrolidin-2-one], the IC50 worked out at 0.71 µM.
Regarding `O=C(CN1CCCC(c2ccccc2)(c2ccccc2)C1=O)N1CCc2ccccc2C1` [Example 260, 1-[2-(3,4-dihydroisoquinolin-2(1H)-yl)-2-oxoethyl]-3,3-diphenylpiperidin-2-one], the IC50 was found to be 7.12 µM.
With `O=C(CN1CCC(c2ccc(F)cc2)(c2ccc(F)cc2)C1=O)N1CC2(CCN(Cc3ccccc3)CC2)C1` [Example 152, 1-[2-(7-benzyl-2,7-diazaspiro[3.5]non-2-yl)-2-oxoethyl]-3,3-bis(4-fluorophenyl)pyrrolidin-2-one], the IC50 amounted to 0.73 µM.
Turning to `COc1ccc(CC2(C)CN(C(=O)CN3CCC(c4ccccc4)(c4ccccc4)C3=O)CCN2)cc1OC` (stereo not shown) [Example 167, 1-{2-[3-(3,4-dimethoxybenzyl)-3-methylpiperazin-1-yl]-2-oxoethyl}-3,3-diphenylpyrrolidin-2-one], the IC50 was determined as 2.02 µM.
As for `O=C(CN1CCCC(c2ccccc2)(c2ccccc2)C1=O)N1CCOC(c2ccccc2)C1` (stereo not shown) [Example 70, 1-[2-oxo-2-(2-phenylmorpholin-4-yl)ethyl]-3,3-diphenylpiperidin-2-one], the figure is 7.22 µM; as for `COc1ccc(C2(c3ccc(OC)cc3)CCCN(CCN(C)CCCOc3cc(OC)cc(OC)c3)C2=O)cc1` [Example 115, 1-{2-[[3-(3,5-dimethoxyphenoxy)propyl](methyl)amino]ethyl}-3,3-bis(4-methoxyphenyl)piperidin-2-one], 3.12 µM.
Regarding `O=C1N(S(=O)(=O)c2cccc(C(F)(F)F)c2)CCCC1(c1ccccc1)c1ccccc1` [Example 146, 3,3-diphenyl-1-{[3-(trifluoromethyl)phenyl]sulfonyl}piperidin-2-one], the IC50 stood at 6.78 µM.
Regarding `O=C1N(Cc2nc(CCc3ccc(Cl)cc3)no2)CCC1(c1ccc(F)cc1)c1ccc(F)cc1` [Example 165, 1-({3-[2-(4-chlorophenyl)ethyl]-1,2,4-oxadiazol-5-yl}methyl)-3,3-bis(4-fluorophenyl)pyrrolidin-2-one], the IC50 turned out to be 3.39 µM.
The result for `O=C1N(S(=O)(=O)c2ccc(C(F)(F)F)cc2Cl)CCC1(c1ccccc1)c1ccccc1` [Example 151, 1-{[2-chloro-4-(trifluoromethyl)phenyl]sulfonyl}-3,3-diphenylpyrrolidin-2-one] reads 18.3 µM; that for `O=C(NC1CC1)c1cccc(S(=O)(=O)N2CCC(c3ccccc3)(c3ccccc3)C2=O)c1` [Example 150, N-cyclopropyl-3-[(2-oxo-3,3-diphenylpyrrolidin-1-yl)sulfonyl]benzamide], 0.86 µM; that for `O=C(CN1CCC(c2ccc(F)cc2)(c2ccc(F)cc2)C1=O)N1CCc2ccc(C(F)(F)F)cc2C1` [Example 259, 3,3-bis(4-fluorophenyl)-1-{2-oxo-2-[7-(trifluoromethyl)-3,4-dihydroisoquinolin-2(1H)-yl]ethyl}pyrrolidin-2-one], 2.55 µM.
Consider `O=C(CN1CCC(c2ccccc2)(c2ccccc2)C1=O)NCc1ccccc1` [Example 6, N-benzyl-2-(2-oxo-3,3-diphenylpyrrolidin-1-yl)acetamide], for which the IC50 is 5.74 µM.
As for `O=C(CN1CCCC(c2ccccc2)C1=O)Nc1ccc(Cl)cn1` (stereo not shown) [Example 192, N-(5-chloropyridin-2-yl)-2-(2-oxo-3-phenylpiperidin-1-yl)acetamide], the IC50 was determined as 12 µM.
On to `O=C1N(Cc2nc(-c3cnccn3)no2)CCC1(c1ccc(F)cc1)c1ccc(F)cc1` [Example 232, 3,3-bis(4-fluorophenyl)-1-[(3-pyrazin-2-yl-1,2,4-oxadiazol-5-yl)methyl]pyrrolidin-2-one], for which the concentration for half-maximal inhibition (IC50) is 1.91 µM.
Regarding `CN(CCCN1CCCC(c2ccccc2)(c2ccccc2)C1=O)CCc1ccccc1` [Example 117, 1-{3-[methyl(2-phenylethyl)amino]propyl}-3,3-diphenylpiperidin-2-one], the IC50 was 3.46 µM.
As for `N#Cc1ccc(NC(=O)CN2CCC(c3ccc(F)cc3)(c3ccc(F)cc3)C2=O)nc1` [Example 252, 2-[3,3-bis(4-fluorophenyl)-2-oxopyrrolidin-1-yl]-N-(5-cyanopyridin-2-yl)acetamide], the figure is 2.97 µM.
For `O=C(CN1CCC(c2ccccc2)(c2ccccc2)C1=O)N1CCC(c2ccccc2)(c2ccccc2)CC1` [Example 25, 1-[2-(4,4-diphenylpiperidin-1-yl)-2-oxoethyl]-3,3-diphenylpyrrolidin-2-one], the 50% inhibitory concentration (IC50) worked out at 0.46 µM.
`O=C(CN1CCC(c2ccccc2)(c2ccccc2)C1=O)NCc1ccc(F)cc1` [Example 12, N-(4-fluorobenzyl)-2-(2-oxo-3,3-diphenylpyrrolidin-1-yl)acetamide]: the IC50 came out at 3.89 µM.
On to `O=C(CN1CCC(c2ccccc2)(c2ccccc2)C1=O)N1CCN(Cc2ccc(F)cc2)CC1` [Example 38, 1-{2-[4-(4-fluorobenzyl)piperazin-1-yl]-2-oxoethyl}-3,3-diphenylpyrrolidin-2-one], for which the IC50 came to 2.22 µM.
Consider `COc1cc(CN2CCN(CCCN3CCCC(c4cccc(OC)c4)(C(C)C)C3=O)CC2)cc(OC)c1` (stereo not shown) [Example 133, 1-{3-[4-(3,5-dimethoxybenzyl)piperazin-1-yl]propyl}-3-isopropyl-3-(3-methoxyphenyl)piperidin-2-one], for which the IC50 is 0.67 µM.
Regarding `O=C(CN1CCC[C@H](c2ccccc2)C1=O)N1Cc2ccc(F)cc2C1` (single isomer, unassigned) [Example 188], the IC50 is greater than 30 µM.
Consider `O=C(CN1CCC(c2ccccc2)(c2ccccc2)C1=O)NCc1cccc(C(F)(F)F)c1` [Example 7, 2-(2-oxo-3,3-diphenylpyrrolidin-1-yl)-N-[3-(trifluoromethyl)benzyl]acetamide], for which the IC50 turned out to be 2.33 µM.
